US5328909A, “Cyclopropenone derivatives” (Mitsubishi Kasei Corporation, priority 1991, dated 1994)
Structures can show the parent of a compound that is named as a salt.

Target: T1, m-calpain (Rattus norvegicus, UniProt Q07009)
T1 construct: m-calpain was purified from rat brain; from tissue; host or cells: rat brain
T1 sequence (Q07009 20-700 limits assumed): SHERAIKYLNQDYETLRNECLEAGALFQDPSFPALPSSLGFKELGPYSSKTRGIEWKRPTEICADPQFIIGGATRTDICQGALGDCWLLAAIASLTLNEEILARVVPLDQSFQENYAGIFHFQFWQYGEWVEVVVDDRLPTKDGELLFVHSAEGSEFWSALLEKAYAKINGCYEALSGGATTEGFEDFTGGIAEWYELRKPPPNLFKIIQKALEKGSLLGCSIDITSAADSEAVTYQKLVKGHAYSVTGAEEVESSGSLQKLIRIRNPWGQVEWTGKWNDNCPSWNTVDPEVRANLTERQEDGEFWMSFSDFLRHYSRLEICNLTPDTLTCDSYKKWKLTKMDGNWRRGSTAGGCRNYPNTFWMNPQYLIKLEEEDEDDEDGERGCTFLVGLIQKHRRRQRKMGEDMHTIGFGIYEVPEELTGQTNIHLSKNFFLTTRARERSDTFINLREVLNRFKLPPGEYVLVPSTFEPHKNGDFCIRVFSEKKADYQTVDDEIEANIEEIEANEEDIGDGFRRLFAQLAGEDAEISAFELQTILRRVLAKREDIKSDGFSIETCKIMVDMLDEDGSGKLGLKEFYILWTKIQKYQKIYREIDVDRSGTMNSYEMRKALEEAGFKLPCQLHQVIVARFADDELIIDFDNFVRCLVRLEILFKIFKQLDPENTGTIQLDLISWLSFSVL
T1 sequence (Q64537 1-270 partner): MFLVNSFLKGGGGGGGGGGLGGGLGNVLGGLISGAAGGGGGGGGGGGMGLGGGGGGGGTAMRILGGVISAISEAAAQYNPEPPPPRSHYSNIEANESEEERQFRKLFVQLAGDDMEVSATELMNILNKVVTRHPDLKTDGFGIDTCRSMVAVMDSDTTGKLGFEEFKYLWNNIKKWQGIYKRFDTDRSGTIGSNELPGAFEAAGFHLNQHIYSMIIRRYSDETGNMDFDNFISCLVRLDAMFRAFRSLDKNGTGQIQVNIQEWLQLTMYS
Test: Thiol protease inhibitory activity against m-calpain purified from rat brain
Format: biochemical
Settings: Table 4; rat brain enzyme; read-out: Inhibitory activity against m-calpain IC50
Method: Inhibitory activity against papain (P-3125, Sigma) and cathepsin B (C-6286, Sigma) was assayed according to the method described in a literature [Biochemical Journal, 201, 189 (1982)]. Capthesin L was purified from rat kidney according to the method in a literature [Journal of Biochemistry, 100, 35 (1986)], and the inhibitory activity against it was assayed in the same manner as described in the above literature for cathepsin B. Further, m-calpain was purified from rat brain according to a known method [Journal of Biological Chemistry, 254, p.3210 (1984)] and the inhibitory activity against it was assayed by a method described in a literature [Journal of Biological Chemistry, 259, 12489 (1984)]. The results are showing in Tables 3 and 4. It is evident from Tables 3 and 4 that the compounds in the present invention have a potent inhibitory activity against thiol proteases such as papain, cathepsin B, cathepsin L, m-calpain or the like.

Row | IC50 | Compound
1 | 1600 nM | CC(C)C[C@H](NC(=O)c1c(F)cccc1F)C(=O)N[C@@H](C(C)C)[C@@H](O)c1c(-c2ccccc2)c1=O [59 (No. 175), 2-[(1S, 2S)-2-{(S)-2-(2,6-difluorobenzoylamino)-4-methylvalerylamino}-1-hydroxy-3-methylbutyl]-3-phenylcyclopropenone]
2 | 1100 nM | CC(C)C[C@H](NC(=O)c1ccccc1Cl)C(=O)N[C@@H](C(C)C)[C@@H](O)c1c(-c2ccccc2)c1=O [60 (No. 178), 2-[(1S, 2S)-2-{(S)-2-(2-chlorobenzoylamino)-4-methylvalerylamino}-hydroxy-3-methylbutyl]-3-phenylcyclopropenone]
3 | 1400 nM | CC(C)C[C@H](NC(=O)c1ccc(Cl)cc1)C(=O)N[C@@H](C(C)C)[C@@H](O)c1c(-c2ccccc2)c1=O [62 (No. 180), 2-[(1S, 2S)-2-{(S)-2-(4-chlorobenzoylamino)-4-methylvalerylamino}-1-hydroxy-3-methylbutyl]-3-phenylcyclopropenone]
4 | 1600 nM | Cc1ccccc1C(=O)N[C@@H](CC(C)C)C(=O)N[C@@H](C(C)C)[C@@H](O)c1c(-c2ccccc2)c1=O [63 (No. 184), 2-[(1S, 2S)-1-hydroxy-3-methyl-2-{(S)-4-methyl-2-(2-toluoylamino)valerylamino}butyl]-3-phenylcyclopropenone]
5 | 1800 nM | COC(=O)c1ccc(C(=O)N[C@@H](CC(C)C)C(=O)N[C@@H](C(C)C)[C@@H](O)c2c(-c3ccccc3)c2=O)cc1 [65 (No. 191), 2-[(1S, 2S)-1-hydroxy-2-{(S)-2-(4-methoxycarbonylbenzoylamino)-4-methylvalerylamino}-3-methylbutyl]-3-phenylcyclopropenone]
6 | 880 nM | CC(C)C[C@H](NC(=O)c1ccco1)C(=O)N[C@@H](C(C)C)[C@@H](O)c1c(-c2ccccc2)c1=O [67 (No. 197), 2-[(1S, 2S)-2-{(S)-2-(2-furoylamino)-4-methylvalerylamino}-1-hydroxy-3-methylbutyl]-3-phenylcyclopropenone]
7 | 3100 nM | CC(C)C[C@H](NC(=O)c1cccs1)C(=O)N[C@@H](C(C)C)[C@@H](O)c1c(-c2ccccc2)c1=O [68 (No. 200), 2-[(1S, 2S)-1-hydroxy-3-methyl-2-{(S)-4-methyl-2-(2-thenoylamino)valerylamino}butyl]-3-phenylcyclopropenone]
8 | 3000 nM | Cc1cc(C(=O)N[C@@H](CC(C)C)C(=O)N[C@@H](C(C)C)[C@@H](O)c2c(-c3ccccc3)c2=O)n(C)n1 [69 (No. 203), 2-[(1S, 2S)-2-{(S)-2-(1,3-dimethyl-5-pyrazolylcarbonylamino)-4-methylvalerylamino}-1-hydroxy-3-methylbutyl]-3-phenylcyclopropenone]
9 | 1300 nM | CC(C)C[C@H](NC(=O)c1cccnc1)C(=O)N[C@@H](C(C)C)[C@@H](O)c1c(-c2ccccc2)c1=O [71 (No. 209), 2-[(1S, 2S)-1-hydroxy-3-methyl-2-((S)-4-methyl-2-nicotinoylaminovalerylamino)butyl]-3-phenylcyclopropenone]
10 | 400 nM | CC(C)C[C@H](NC(=O)c1ccncc1)C(=O)N[C@@H](C(C)C)[C@@H](O)c1c(-c2ccccc2)c1=O [72 (No. 213), 2-[(1S, 2S)-1-hydroxy-2-((S)-2-isonicotinoylamino-4-methylvalerylamino)-3-methylbutyl]-3-phenylcyclopropenone]
11 | 1400 nM | CC(C)C[C@H](NC(=O)c1ccnc(Cl)c1)C(=O)N[C@@H](C(C)C)[C@@H](O)c1c(-c2ccccc2)c1=O [73 (No. 216), 2-[(1s, 2S)-2-{(S)-2-(2-chloroisonicotinoylamino)-4-methylvalerylamino}-1-hydroxy-3-methylbutyl]-3-phenylcyclopropenone]
12 | 800 nM | CC(C)C[C@H](NC(=O)c1ccc2ccccc2n1)C(=O)N[C@@H](C(C)C)[C@@H](O)c1c(-c2ccccc2)c1=O [74 (No. 219), 2-[(1S, 2S)-1-hydroxy-3-methyl-2-{(S)-4-methyl-2-(2-quinolylcarbonylamino)valerylamino}butyl-3-phenylcyclopropenone hydrochloride]
13 | 3300 nM | CC(C)C[C@H](NC(=O)NCc1ccccc1)C(=O)N[C@@H](C(C)C)[C@@H](O)c1c(-c2ccccc2)c1=O [75 (No. 225), 2-[(1S, 2S)-2-{(S)-2-(3-benzylureido)-4-methylvalerylamino}-1-hydroxy-3-methylbutyl]-3-phenylcyclopropenone]
14 | 4600 nM | CC(C)C[C@H](NC(=O)Nc1ccccc1)C(=O)N[C@@H](C(C)C)[C@@H](O)c1c(-c2ccccc2)c1=O [76 (No. 227)]
15 | 950 nM | CCCS(=O)(=O)N[C@@H](CC(C)C)C(=O)N[C@@H](C(C)C)[C@@H](O)c1c(-c2ccccc2)c1=O [77 (No. 232), 2-[(1S, 2S)-1-hydroxy-3-methyl-2-((S)-4-methyl-2-propylsulfonylaminovalerylamino)butyl]-3-phenylcyclopropenone]
16 | 440 nM | CC(C)C[C@H](NS(=O)(=O)Cc1ccccc1)C(=O)N[C@@H](C(C)C)[C@@H](O)c1c(-c2ccccc2)c1=O [78 (No. 237), 2-[(1S, 2S)-2-((S)-2-benzylsulfonylamino-4-methylvalerylamino)-1-hydroxy-3-methylbutyl]-3-phenylcyclopropenone]
17 | 1800 nM | CC(C)C[C@H](NS(=O)(=O)Cc1ccccc1)C(=O)N[C@@H](C(C)C)[C@H](O)c1c(-c2ccccc2)c1=O [79 (No. 237), 2-[(1R, 2S)-2-((S)-2-benzylsulfonylamino-4-methylvalerylamino)-1-hydroxy-3-methylbutyl]-3-phenylcyclopropenone]
18 | 350 nM | CC(C)C[C@H](NS(=O)(=O)c1ccccc1)C(=O)N[C@@H](C(C)C)[C@@H](O)c1c(-c2ccccc2)c1=O [80 (No. 239), 2-[(1S, 2S)-1-hydroxy-3-methyl-2-((S)-4-methyl-2-phenylsulfonylaminovalerylamino)butyl]-3-phenylcyclopropenone]
19 | 4300 nM | CC(C)C[C@H](NS(=O)(=O)c1ccccc1)C(=O)N[C@@H](C(C)C)[C@H](O)c1c(-c2ccccc2)c1=O [81 (No. 239), 2-[(1R, 2S)-1-hydroxy-3-methyl-2-((S)-4-methyl-2-phenylsulfonylaminovalerylamino)butyl]-3-phenylcyclopropenone]
20 | 3000 nM | CC(C)C[C@H](NS(=O)(=O)c1ccc(F)cc1)C(=O)N[C@@H](C(C)C)[C@@H](O)c1c(-c2ccccc2)c1=O [83 (No. 245), 2-[(1S, 2S)-2-{(S)-2-(4-fluorophenylsulfonylamino)-4-methylvalerylamino}-1-hydroxy-3-methylbutyl]-3-phenylcyclopropenone]
21 | 850 nM | CC(C)C[C@H](NS(=O)(=O)c1ccccc1Cl)C(=O)N[C@@H](C(C)C)[C@@H](O)c1c(-c2ccccc2)c1=O [84 (No. 246), 2-[(1S, 2S)-2-{(S)-2-(2-chlorophenylsulfonylamino)-4-methylvalerylamino}-1-hydroxy-3-methylbutyl]-3-phenylcyclopropenone]
22 | 840 nM | CC(C)C[C@H](NS(=O)(=O)c1ccc(Cl)cc1)C(=O)N[C@@H](C(C)C)[C@@H](O)c1c(-c2ccccc2)c1=O [85 (No. 248), 2-[(1S, 2S)-2-{(S)-2-(4-chlorophenylsulfonylamino)-4-methylvalerylamino}-1hydroxy-3-methylbutyl]-3-phenylcyclopropenone]
23 | 750 nM | Cc1ccc(S(=O)(=O)N[C@@H](CC(C)C)C(=O)N[C@@H](C(C)C)[C@@H](O)c2c(-c3ccccc3)c2=O)cc1 [86 (No. 251), 2-[(1S, 2S)-1-hydroxy-3-methyl-2-{(S)-4-methyl-2-(4-trisulfonylamino)valerylamino}butyl]-3-phenylcyclopropenone]
24 | 1000 nM | COc1ccc(S(=O)(=O)N[C@@H](CC(C)C)C(=O)N[C@@H](C(C)C)[C@@H](O)c2c(-c3ccccc3)c2=O)cc1 [87 (No. 257), 2-[(1S, 2S)-1-hydroxy-2-{(S)-2-(4-methoxyphenylsulfonylamino)-4-methylvalerylamino}-3-methylbutyl]-3-phenylcyclopropenone]
